Source: patent US10328063B2, “Method of wound healing” (CONNEXIOS LIFE SCIENCES PVT. LTD, priority 2015, dated 2019)

Key:
[1] = tested on: incision wound in db/db mice; assay: Incision wound model in db/db mice (tensile strength); format: in vivo; conditions: diabetic db/db mice
Protocol: (§1) db/db Mice (from JAX lab) on chow diet were weighed and randomly allocated into different groups such as db/db cream base control and db/db+0.5% CNX-010-640 cream.
(§2) [6] Mice were anaesthetized using ketamine and xylazine, hair was trimmed off and a longitudinal incision of 4 to 5 cm length was made on the back and stitched with thread. CNX-010-640 cream was applied topically, twice a day. The degree of protection for wound remodeling was assessed by measuring tensile strength and collagen content of skin at the healed wound site. Wound tensile strength was measured after 14 days of treatment.

[2] = tested on: incision wound in diet induced obese C57 mice; assay: Incision wound model in HFD fed C57 mice (tensile strength, collagen content); format: in vivo; conditions: diabetic C57 mice
From the text: (§3) After an acclimatization period, C57 animals on the HFD were weighed and randomly allocated into different groups such as HFD cream base control and HFD+0.5% CNX-010-640 cream. C57 animals on a lean chow diet (Cream base) were also used as a control. Swiss albino mice on a lean chow diet (excision experiments only) were randomized into cream base control and 0.5% CNX-010-640 cream.
as §2

[3] = tested on: markers of inflammation at the wound area; assay: Ex vivo gene expression profile from excision wound model; format: in vivo; conditions: HFD C57BL/6 mice, after one week of compound treatment, skin near wound
From the text: [13] […] The db/db control group wounds were not healed within this time. Furthermore, the size of wound of these control groups at the end of the experiment period (day 12) was achieved by the CNX-010-640 treated mice after only 8 days of treatment. […] [16] […] [17] Additionally, the degree of polymorphonuclear cell infiltration (indicative of inflammatory phase) was greater in the G2 group compared to the G3 group (compare FIGS. 6 and 7). From these microscopic observations it can be concluded that the treatment with 0.5% CNX-010-640 hastened the healing process, as it facilitated an early advancement into the proliferative phase in animals treated with CNX-010-640 (G3 group) of this study. Thus CNX-010-640 cream, when applied topically b.i.d, in excision and incision wound healing model on HFD background animals and normal SAM mice, enhanced the healing process in comparison with normal healing and VersaPro control. […] Gene expression was measured using SYBR Green PCR Master Mix (Eurogenetic, Belgium) and relative levels of expression were quantified (see FIGS. 12 to 17). From this, it is apparent that compound treatment has reduced the markers of inflammation at the wound area, as measured by gene expression. […]

[4] = tested on: excision wound in db/db mice; assay: Excision wound model in db/db mice (wound contraction); format: in vivo; conditions: for Wound contraction profile in db/db mice: 0.5% cream topical twice a day, Mean ± SEM
Protocol: as §1
(§4) Mice were anaesthetized using ketamine and xylazine, hair was trimmed off and a circular excision of 20 mm^2 size was made on the dorsal neck region. CNX-010-640 cream was applied topically, twice a day. The degree of protection for wound remodeling was assessed by measuring wound contraction and period of epithelialisation. Wound contraction was measured on alternate days by tracing the raw wound area on graph paper carried by butter paper. Scar residue and time for completion of epithelialisation was measured. Results are shown in FIGS. 2 and 3, and Tables 1 to 3. On the termination day animals were euthanized and tissue samples containing wound was collected to study histopathological changes (as shown in FIGS. 6 to 11) and gene expression profiles were determined (FIGS. 12 to 17).

[5] = tested on: excision wound in diet induced obese C57 mice; assay: Excision wound model in HFD fed C57 mice (wound contraction, histopathology); format: in vivo; conditions: for Wound contraction profile in C57 mice: HFD, 0.5% cream topical twice a day, Mean ± SEM
From the text: as §3, §4
[7] All the values are expressed as Mean±SEM, one way analysis of variance was performed followed by Dunnets' test for establishing the significance value of the treatment groups when compared with the HFD control.

[6] = tested on: Human Dermal Fibroblast cells (HDF); assay: In vitro scratch assay; format: cell-based; conditions: 400 nM cortisone with 1 μM test molecule, 24 h
Protocol: Human Dermal Fibroblast cells (HDF) cells were seeded in 24 well plates (25000 cells/mL) in 1 mL of growth media (Media-106, Gibco) and allowed to grow for 24 h at 37° C. and 5% CO2. A small linear scratch was created in the confluent monolayer by gently scraping with sterile p200 pipette tips (care was taken during scratching process to ensure universal size and distant was made for all samples). Cells were extensively rinsed with PBS to remove cellular debris before adding the media with different treatment solutions (400 nM cortisone with or without 1 μM of test molecule according to Formula (I)). After 24 h, images of migrated cells were taken using a digital camera connected to inverted microscope to observe the closure of wound area. Scratch assays were performed in quadruplicate.

[7] = tested on: excision wound in Swiss albino mice; assay: Excision wound model in Swiss albino mice (wound contraction); format: in vivo; conditions: for Wound contraction profile in SAM: 0.5% cream topical twice a day, Mean ± SEM
From the text: as §3, §4

[8] = HFD C57 mice, 0.5% cream, excision wound
[9] = diabetes-induced C57 mice, excision

In the case of `CC(CC(=O)N1C2CC3CC1CC(O)(C3)C2)c1c[nH]c2ccc(Cl)c(Cl)c12` (stereo not drawn) [CNX-010-640, 3-(4,5-Dichloro-1H-indol-3-yl)-1-(5-hydroxy-2-azatricyclo[3.3.1.1^3,7]dec-2-yl)butan-1-one], the “improvement of tensile strength of skin at the incision site compared with control formulation” value [1] is reported as “up to 18%”, the “improvement of tensile strength of skin at the incision site compared with control formulation” value ([2]; after 14 days of treatment) is reported as “up to 38%” and the “collagen content, as estimated by measurement of hydroxyproline, compared with controls” value ([2]; incision) is reported as “greater”. The “markers of inflammation at the wound area, as measured by gene expression” value [3] was “reduced”, the “Wound contraction profile in db/db mice” value ([4]; Day 0) was 17.10 ± 0.69 mm^2 and the “Wound contraction profile in db/db mice” value ([4]; Day 2) was 23.80 ± 0.87 mm^2. The “Wound contraction profile in db/db mice” value ([4]; Day 4) was 14.40 ± 0.91 mm^2, the “Wound contraction profile in db/db mice” value ([4]; Day 6) was 11.40 ± 0.48 mm^2 and the “Wound contraction profile in db/db mice” value ([4]; Day 8) was 8.20 ± 0.42 mm^2. The “Wound contraction profile in db/db mice” value ([4]; Day 10) was 5.00 ± 0.47 mm^2, the “Wound contraction profile in db/db mice” value ([4]; Day 12) was 2.20 ± 0.42 mm^2 and the “Wound contraction profile in db/db mice” value ([4]; Day 16) was 0.30 ± 0.21 mm^2. The “days of treatment to reach the wound size of the control group at day 12” value (from here on “days of treatment”) ([4]; db/db mice, excision) was 8 days, the “time to complete healing of the wound” value ([4]; diabetic db/db mice, excision) was 16 days and the “Wound contraction profile in C57 mice” value ([5]; Day 0) was 25.10 ± 1.40 mm^2. For the same compound, the “Wound contraction profile in C57 mice” value ([5]; Day 2) was 15.80 ± 1.77 mm^2, the “Wound contraction profile in C57 mice” value ([5]; Day 4) was 17.90 ± 1.92 mm^2 and the “Wound contraction profile in C57 mice” value ([5]; Day 6) was 9.40 ± 1.42 mm^2. For the same compound, the “Wound contraction profile in C57 mice” value ([5]; Day 8) was 5.60 ± 1.47 mm^2, the “Wound contraction profile in C57 mice” value ([5]; Day 10) was 4.00 ± 1.41 mm^2 and the “Wound contraction profile in C57 mice” value ([5]; Day 12) was 0.25 ± 0.25 mm^2. For the same compound, the “degree of collagen deposition (histopathology) in comparison with HFD+VersaPro control” value [5, 8] was “higher degree”, the “degree of fibroblast proliferation (histopathology) in comparison with HFD+VersaPro control” value [5, 8] was “higher degree” and the “days of treatment” value [5, 9] was 6 days. The “time to complete healing of the wound” value [5, 9] was 12 days, the “degree of polymorphonuclear cell infiltration (histopathology)” value ([5]; diabetes-induced mouse, VersaPro cream with 0.5% compound, excision wound) was “mild” and the “closure of wound area (wound healing properties, image analysis)” value [6] was “good wound healing properties”. For the same compound, the “Wound contraction profile in SAM” value ([7]; Day 0) was 22.77 ± 1.38 mm^2, the “Wound contraction profile in SAM” value ([7]; Day 2) was 15.00 ± 2.18 mm^2 and the “Wound contraction profile in SAM” value ([7]; Day 4) was 14.33 ± 2.62 mm^2. The “Wound contraction profile in SAM” value ([7]; Day 6) was 10.44 ± 2.80 mm^2, the “Wound contraction profile in SAM” value ([7]; Day 8) was 3.20 ± 1.46 mm^2 and the “Wound contraction profile in SAM” value ([7]; Day 10) was 1.00 ± 0.54 mm^2. The “Wound contraction profile in SAM” value ([7]; Day 12) was 0.600 ± 0.600 mm^2, the “days of treatment” value ([7]; Swiss albino mice, excision) was 6 days and the “time to complete healing of the wound” value ([7]; non-diabetic Swiss albino mice, excision) was 12 days.
